Earlier results in patent US20170042798A1, “USE OF BIDENS EXTRACT TO REDUCE SIGNS OF SKIN AGING” (KIMBERLY-CLARK WORLDWIDE ,INC., priority 2014, published 2017).

System: 3T3-L1 cells
Conditions: literature, Nutr. Res. 32(6): 439-447

Fucoidan
adipogenesis: inhibit adipogenesis
